Test results from patent US20240307374A1, “FORMULATION OF FURIN INHIBITOR FOR INHALATION” (BP ASSET V, INC., priority 2021, published 2024).
In brackets after ≈: the same amount, converted by molar mass.

What was measured:
Type in all cases: physicochemical
[1] = Approximate solubility at RT
Experimental: Four freeform isolation experiments were performed in different solvent with different acids. Solids were obtained in DCM/HCl and CHCl3/HCl system.
Approximately 2 mg solids were added into a 3-mL glass vial. Solvents in the following table were then added stepwise (50-50-200-700[…] for each step) into the vials and stirred until the solids were dissolved or a total volume of 1 mL was reached. The solubility results were used to guide the solvent selection in polymorph formation.

[2] = DVS (dynamic vapor sorption) moisture uptake; conditions: for Moisture Uptake (DVS): 25° C., from 0% RH to 80% RH; for form change after DVS test (XRPD): XRPD before and after DVS
Experimental: (FIG. 5). Sample weight decreased rapidly when humidity decreased from 10% to 0%, which might be caused by loss of crystalline water.
DVS was measured via a SMS (Surface Measurement Systems) DVS Intrinsic.

[3] = Equilibrium solubility of freeform Type D in pH=4.0 and 5.0 citrate/phosphate buffers; conditions: for Form: XRPD of precipitate; for Form / solubility at 24 h / End pH (24 hours): citrate/phosphate buffer; for Form / solubility at 24 h / solid form after equilibrium (XRPD): 24 hours; for solubility at 24 h: aqueous buffer, thermodynamic from solid; for solid form after equilibrium (XRPD): RT
Experimental: The suspension was equilibrated via stirring (1000 rpm) for 24 hours. The suspension was centrifuged to obtain precipitate and supernatants. Solubility and pH were tested for the supernatants after filtration, and isolated precipitate was tested by XRPD.

[4] = Formulation development with NaCl; conditions: ~35 mg freeform Type D + ~9.6 mg citric acid + ~6.1 mg NaCl in water
Experimental: The concentration of freeform in the suspension was 0.60 mg/mL (pH 3.8). […] The experiment was redone, and a clear solution (a little cloudy) was obtained immediately after adding 1 mL water into ˜32 mg/mL API+9.6 mg/mL critic acid, solid precipitated out after addition of NaCl.

[5] = Solid state stability; parameters: key to FC (form change): N: The form was not changed; conditions: for Purity: initial purity 99.62%
Experimental: Approximately 30 mg of each solid sample was added to an HPLC vial (sealed by Parafilm© and poked with several pinholes) and then stored at 25° C./60% RH, 40° C./75% RH and 60° C. for 28 days.
After 1/3/7/14/28 days storage, solids were taken out for HPLC and XRPD to evaluate chemical and physical stability, respectively.

[6] = Solubility of freeform Type D with sugars
Experimental: The samples were sonicated for about 2 minutes, and the samples were almost clear (little solid was observed) and filtered for clear solution, pH of the solutions were 3.5. About 68.5 mg lactose and sucrose were added into the two solutions, respectively. The two samples were clear after adding sugar, and pH of the two samples remained 3.5. pH of the two solutions was adjusted to 5.1 by adding 1 M NaOH, and no solid precipitated out after pH adjustment.
The three solutions were stored under 5° C. for three days, and no solid precipitated out after cooling. The concentration and pH were tested for each sample.

[7] = In situ salt solubility test (citric acid, fumaric acid); conditions: for solubility: filtrate, read-out: Concentration (in situ salt solubility)
From the text: The sample was almost clear (little solid was observed) and filtered for a solubility test.

[8] = 30 mmol freeform Type D + 30 mmol citric acid, initial pH 3.6
[9] = 50 mmol freeform Type D + 50 mmol citric acid + ~200 mmol lactose, initial pH 5.1
[10] = 50 mmol freeform Type D + 50 mmol citric acid + ~200 mmol sucrose, initial pH 5.1
[11] = 1.1 equiv. of citric acid in water
[12] = 1.1 equivalent of fumaric acid in water

Question: Which solubility ([1]; 1,4-dioxane, organic solvent or mixture, thermodynamic from solid, 1,4-Dioxane, RT, read-out: Solubility) does the source give for CC(=O)NCC1CCN(Cc2cc(Oc3ccc(N4CCN(CCC(=O)O)CC4)nc3)nc(-c3cc(Cl)cc(Cl)c3)c2)CC1 [Freeform Type A] here?
Answer: The solubility was under 1900 µg/mL.

Question: What about the solubility ([1]; 2-MeTHF, organic solvent or mixture, thermodynamic from solid, 2-MeTHF, RT, read-out: Solubility) of the same molecule?
Answer: Its solubility is under 1700 µg/mL.

Question: And the solubility ([1]; ACN, organic solvent or mixture, thermodynamic from solid, ACN, RT, read-out: Solubility)?
Answer: The solubility was under 1900 µg/mL.

Question: What about the solubility ([1]; Anisole, organic solvent or mixture, thermodynamic from solid, Anisole, RT, read-out: Solubility) of the same molecule?
Answer: Its solubility is under 2000 µg/mL.

Question: And the solubility ([1]; CHCl3, RT, solvent for freeform isolation)?
Answer: The solubility was “S < 1.2 mg/mL”.

Question: And the solubility ([1]; CHCl3, organic solvent or mixture, thermodynamic from solid, CHCl3, RT, read-out: Solubility)?
Answer: Its solubility is under 2100 µg/mL.

Question: What about the solubility ([1]; CPME, organic solvent or mixture, thermodynamic from solid, CPME, RT, read-out: Solubility) of the same molecule?
Answer: Its solubility is under 2000 µg/mL.

Question: And the solubility ([1]; DCM, organic solvent or mixture, thermodynamic from solid, DCM, RT, read-out: Solubility)?
Answer: The solubility was under 1800 µg/mL.

Question: What about the solubility ([1]; DMSO, organic solvent or mixture, thermodynamic from solid, DMSO, RT, read-out: Solubility) of the same molecule?
Answer: Its solubility is 17000 to 34000 µg/mL (≈ 26.5 to 53 mM).

Question: And the solubility ([1]; EtOAc, organic solvent or mixture, thermodynamic from solid, EtOAc, RT, read-out: Solubility)?
Answer: Its solubility is under 2000 µg/mL.

Question: And the solubility ([1]; EtOH, organic solvent or mixture, thermodynamic from solid, EtOH, RT, read-out: Solubility)?
Answer: Its solubility is 7300 to 22000 µg/mL (≈ 11.4 to 34.3 mM).

Question: And the solubility ([1]; IPA, organic solvent or mixture, thermodynamic from solid, IPA, RT, read-out: Solubility)?
Answer: Its solubility is 1500 to 1800 µg/mL (≈ 2.34 to 2.81 mM).

Question: What about the solubility ([1]; IPAc, organic solvent or mixture, thermodynamic from solid, IPAc, RT, read-out: Solubility) of the same molecule?
Answer: The solubility was under 1900 µg/mL.

Question: And the solubility ([1]; MIBK, organic solvent or mixture, thermodynamic from solid, MIBK, RT, read-out: Solubility)?
Answer: The solubility was under 2100 µg/mL.

Question: What about the solubility ([1]; MTBE, organic solvent or mixture, thermodynamic from solid, MTBE, RT, read-out: Solubility) of the same molecule?
Answer: Its solubility is under 1900 µg/mL.

Question: And the solubility ([1]; MeOH, organic solvent or mixture, thermodynamic from solid, MeOH, RT, read-out: Solubility)?
Answer: Its solubility is over 40000 µg/mL.

Question: What about the solubility ([1]; THF, organic solvent or mixture, thermodynamic from solid, THF, RT, read-out: Solubility) of the same molecule?
Answer: The solubility was 4000 to 8000 µg/mL (≈ 6.23 to 12.5 mM).

Question: What about the solubility ([1]; Toluene, organic solvent or mixture, thermodynamic from solid, Toluene, RT, read-out: Solubility) of the same molecule?
Answer: Its solubility is under 2100 µg/mL.

Question: And the solubility ([1]; acetone, organic solvent or mixture, thermodynamic from solid, Acetone, RT, read-out: Solubility)?
Answer: The solubility was under 1900 µg/mL.

Question: What about the solubility ([1]; n-Heptane, organic solvent or mixture, thermodynamic from solid, n-Heptane, RT, read-out: Solubility) of the same molecule?
Answer: The solubility was under 2200 µg/mL.

Question: What about the solubility ([1]; water, thermodynamic from solid, H2O, RT, read-out: Solubility) of the same molecule?
Answer: The solubility was under 2000 µg/mL.

Question: What about the “Moisture Uptake (DVS)” value [2] of the same molecule?
Answer: The value was 6.8% (from 0% RH to 80% RH).

Question: And the “form change after DVS test (XRPD)” value [2]?
Answer: Its value is “No form change”.

Question: What does the source list for CC(=O)NCC1CCN(Cc2cc(Oc3ccc(N4CCN(CCC(=O)O)CC4)nc3)nc(-c3cc(Cl)cc(Cl)c3)c2)CC1 [Freeform Type D]?
Answer: Form ([3]; initial pH 4.0, RT): Low crystallinity*; Form ([3]; initial pH 5.0, RT): Freeform Type D; solubility at 24 h ([3]; initial pH 4.0, RT): 30.6 mg/mL (≈ 47.7 mM); solubility at 24 h ([3]; initial pH 5.0, RT): 1.29 mg/mL (≈ 2.01 mM); End pH (24 hours) ([3]; initial pH 4.0, RT): 5.2; End pH (24 hours) ([3]; initial pH 5.0, RT): 5.2; solid form after equilibrium (XRPD) ([3]; pH=4.0 citrate/phosphate): Low crystallinity sample; solid form after equilibrium (XRPD) ([3]; pH=5.0 citrate/phosphate): no form change; Moisture Uptake (DVS) [2]: 6.3% (from 0% RH to 80% RH); form change after DVS test (XRPD) [2]: No form change; pH ([4]; 24 hours): 3.8; concentration of freeform in the suspension ([4]; 24 hours stirring): 0.60 mg/mL; degradation or form change (HPLC, XRPD) ([5]; 25° C./60% RH, 40° C./75% RH and 60° C. for 28 days): No significant degradation or form change; FC (form change) ([5]; 25° C./60% RH, 28 days): N; Purity ([5]; 25° C./60% RH, 28 days): 99.6 area %; FC (form change) ([5]; 40° C./75% RH, 1 day): N; Purity ([5]; 40° C./75% RH, 1 day): 99.69 area %; FC (form change) ([5]; 40° C./75% RH, 3 days): N; Purity ([5]; 40° C./75% RH, 3 days): 99.56 area %; FC (form change) ([5]; 40° C./75% RH, 7 days): N; Purity ([5]; 40° C./75% RH, 7 days): 99.59 area %; FC (form change) ([5]; 40° C./75% RH, 14 days): N; Purity ([5]; 40° C./75% RH, 14 days): 99.69 area %; FC (form change) ([5]; 40° C./75% RH, 28 days): N; Purity ([5]; 40° C./75% RH, 28 days): 99.73 area %; FC (form change) ([5]; 60° C., 1 day): N; Purity ([5]; 60° C., 1 day): 99.74 area %; FC (form change) ([5]; 60° C., 3 days): N; Purity ([5]; 60° C., 3 days): 99.57 area %; FC (form change) ([5]; 60° C., 7 days): N; Purity ([5]; 60° C., 7 days): 99.51 area %; FC (form change) ([5]; 60° C., 14 days): N; Purity ([5]; 60° C., 14 days): 99.62 area %; FC (form change) ([5]; 60° C., 28 days): N; Purity ([5]; 60° C., 28 days): 99.66 area %; Concentration [6, 8]: 18.11 mg/mL; End pH (24 hours) [6, 8]: 3.6; Purity [6, 8]: 99.8 Area %; Concentration [6, 9]: 26.45 mg/mL; End pH (24 hours) [6, 9]: 5.1; Purity [6, 9]: 99.8 Area %; Concentration [6, 10]: 26.50 mg/mL; End pH (24 hours) [6, 10]: 5.3; Purity [6, 10]: 99.8 Area %; HPLC purity of filtrates [7, 11]: 99.9% Area %; pH [7, 11]: 3.4; HPLC purity of filtrates [7, 12]: 99.8% Area %; pH [7, 12]: 4.0; solubility ([7]; water with 1.1 equivalent of citric acid, pH 3.4, thermodynamic from solid, 1.1 equiv. of citric acid in water): 39.3 mg/mL; solubility ([7]; water with 1.1 equivalent of fumaric acid, pH 4, thermodynamic from solid, 1.1 equivalent of fumaric acid in water): 1.1 mg/mL
